A word on the kon: it is a measure of how fast the partners come together. A word on the koff: it is the rate constant with which the complex falls apart.

The target in assay [1] is T1, Shank1 PDZ (Rattus norvegicus, UniProt Q9WV48).
T1 construct: His tag; made in house; host or cells: E. coli BL21
T1 sequence (Q9WV48 653-765): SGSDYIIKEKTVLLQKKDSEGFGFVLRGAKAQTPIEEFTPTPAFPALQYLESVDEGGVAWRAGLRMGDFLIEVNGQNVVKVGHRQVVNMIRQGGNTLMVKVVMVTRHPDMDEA
Put plainly: Isothermal titration calorimetry, Shank1 PDZ. It counts as binding. The text has this:
(§1) Gene encoding the Shank1 PDZ (Swiss-Prot accession number Q9WV48.1, residues 653–765) was synthesized by GenScript Inc., and digested by Nde I and Xho I restriction enzymes and ligated into pET28a vector to generate pET28-Shank1 PDZ plasmid (S1A Fig). The plasmid pET.M.3C Shank3 PDZ (Swiss-Prot accession number Q4ACU6.3, residues 533–665) was a gift from Prof. Mingjie Zhang’s group from Division of Life Science, Hong Kong University of Science and Technology. The recombinant plasmid pET28-Shank1 PDZ and pET.M.3C Shank3 PDZ were transformed into E. coli BL21 cells for protein production. Mono-clones were pre-cultured overnight at 37°C, and then cultures were added to new media, shaken at 37 °C until optical density at 600 nm reached 0.6–0.8. Then isopropyl β-D-1-thiogalactopyranoside was added at final concentration 1 mM to induce protein overexpression, the culture was shaken overnight at 16°C.
(§2) Prior to use, lyophilized peptides were dissolved in the storage buffer (50 mM sodium phosphate, 200 mM NaCl, pH 7.4). All the peptides and protein solution were filtered through 0.1 μm membrane, and their concentrations were adjusted according to experiments requirement: except for the binding pair p1 ligand and Shank1 PDZ, the proteins concentration were between 30–40 μM, ligands concentration were between 300–400 μM; and for the binding pair p1 ligand and Shank1 PDZ, the affinity was very low so that protein concentration was adjusted to about 315 μM and p1 ligand concentration was adjusted to about 3.14 mM to get accuracy affinity data. All the solutions were extensively degassed just before titration. Titrations were performed at 25°C by MicroCal VP-ITC (Malvern), and data were analyzed by Origin software (Origin Lab) and fitted to single-binding-site model.

A further assay deals with T2, Shank3 PDZ (Mus musculus, UniProt Q4ACU6).
T2 construct: His tag; made in house; host or cells: E. coli BL21
T2 sequence (Q4ACU6 533-665): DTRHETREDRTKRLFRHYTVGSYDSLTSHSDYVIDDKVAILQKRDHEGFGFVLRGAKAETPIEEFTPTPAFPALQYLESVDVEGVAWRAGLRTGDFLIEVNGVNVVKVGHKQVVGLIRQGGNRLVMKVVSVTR
Description: Isothermal titration calorimetry, Shank3 PDZ. It counts as binding.
Text: as §1, §2

Assay [2] concerns the target T1, Shank1 PDZ. Description: Native mass spectrometry, Shank1 PDZ. Conditions: for complexes with higher stoichiometry such as 2:1 or 3:1: native MS, protein/peptide ratio 4:1, protein in excess, within the detection limit of native MS. It counts as binding. The protocol: Prior to the experiment, the protein solution was extensively dialyzed at 4°C against 150mM ammonium acetate. During the dialysis, Shank1 PDZ yielded no precipitate, while Shank3 PDZ was largely precipitated out. Increasing the concentration of ammonium acetate to 200–500 mM couldn’t alleviate precipitation. Lyophilized peptides were also dissolved in the 150 mM ammonium acetate. All the peptides and protein solution were filtered through 0.1 μm membrane, and their concentrations were adjusted according to experiments requirement. The protein and peptide were mixed as the corresponding ratio and incubated at room temperature for 20 minutes.
Positive ion electrospray ionization mass spectra were acquired on a Micromass Q-Tof micro mass spectrometer (Waters), with a nanoESI source using EconoTips. The capillary voltage was adjusted in the range of 1.2–2.2 kV until optimal ion signals were obtained. The cone voltage of the Q-TOF was set at 20 V, and the ion source temperature was set at 40°C.

In assay [3] the target is T1, Shank1 PDZ. Description: Surface plasmon resonance, immobilized Shank1 PDZ. It counts as binding. Conditions: for kon: pH 7.4, read-out: association rate constant kon; for koff: pH 7.4, read-out: dissociation rate constant koff. The method, then:
Prior to use, lyophilized peptides were dissolved in the storage buffer (50 mM sodium phosphate, 200 mM NaCl, pH 7.4) at high concentration and diluted to required concentration using running buffer (HBS-EP: 0.01 M HEPES pH 7.4, 0.15 M NaCl, 3 mM EDTA, 0.005% v/v Surfactant P20). All the peptides and protein solution were filtered through 0.1 μm membrane, and their concentrations were adjusted according to experiments requirement: for ligand p1, concentration series of 10.8 μM, 21.6 μM, 43.2 μM, 86.5μM, 173μM, 346μM were used; for ligand p2, concentrations series of 10 μM, 20 μM, 40 μM, 80 μM, 160 μM, 320 μM were used; for ligand p3, concentrations series of 2.63 μM, 5.27 μM, 10.5 μM, 21.1 μM, 42.1 μM, 84.3 μM were used. All sample solution and running buffer were extensively degassed just before titration. Shank1 PDZ protein was coupled on CM5 chip using EDC/NHS method.
Running were performed at 25°C on Biacore 3000 (GE), and data were processed by BIAevaluation software and fitted to steady state affinity model and 1:1 Langmuir binding model. 1:1 Langmuir binding model which show kinetics data was analyzed by BIAevaluation software. Steady state affinity model which show affinity data was analyzed by Origin software using the following equation: Req=KACRmax/1+KACn

Assay [4] addresses T3, p1 (monomeric βPIX peptide) (Rattus norvegicus).
T3 chain: CGSSGDPAWDETNL
Put plainly: ITC. A general note: ITC needs no label: the signal is the heat of the interaction.

Assay [5] deals with T4, p2 (dimeric peptide, BM(PEG)2) (also: dimer via Cys-BM(PEG)2 linker).
T4 chain: Ac-CGSSGDPAWDETNL
Description: ITC.

The target in the next assay is T5, dimeric peptide BM(PEG)3 (also: dimer via Cys-BM(PEG)3 linker).
T5 chain: Ac-CGSSGDPAWDETNL
Description: ITC.

The target in assay [6] is T6, p3 (trimeric peptide, TMEA) (also: trimer via Cys-TMEA linker).
T6 chain: Ac-CGSSGDPAWDETNL
Description: ITC.

Assay [7] has as its target T3, p1 (monomeric βPIX peptide). Put plainly: native MS.
In assay [8] the target is T4, p2 (dimeric peptide, BM(PEG)2). Put plainly: native MS.
For assay [9], the target named is T6, p3 (trimeric peptide, TMEA). Put plainly: native MS.
For assay [10], the target named is T4, p2 (dimeric peptide, BM(PEG)2). Description: SPR kinetics. Background: SPR reads the build-up and loss of mass on a sensor chip optically.
The target in assay [11] is T6, p3 (trimeric peptide, TMEA). Description: SPR kinetics.
In assay [12] the target is T3, p1 (monomeric βPIX peptide). Put plainly: SPR steady state.
Assay [13] has as its target T4, p2 (dimeric peptide, BM(PEG)2). Description: SPR steady state.
Assay [14] concerns the target T6, p3 (trimeric peptide, TMEA). Put plainly: SPR steady state.
For assay [15], the target named is T4, p2 (dimeric peptide, BM(PEG)2). Put plainly: ITC (diluted ligand).
Assay [16] has as its target T6, p3 (trimeric peptide, TMEA). Put plainly: ITC (diluted ligand).

Where “and” joins values, the source holds several entries; their conditions need not be identical. Equal entries are not always repeated. Where two headings read alike, the source gives them in different places. Numbered stars: 1 amine (or outer) side, 2 acyl side, 3 side chain; on linkers, the order of the positions; unused ones are H or OH. Bridge positions count the residues as written; N and C are the ends. Ends that are not written are not given here. Peptide text beside a SMILES is read from it. I, II: the chains in the order shown. X1 = O=C1CC([*:1])C(=O)N1CCN(CCN1C(=O)CC([*:2])C1=O)CCN1C(=O)CC([*:3])C1=O; X3 = O=C1CC([*:1])C(=O)N1CCOCCOCCOCCN1C(=O)CC([*:2])C1=O; X2 = O=C1CC([*:1])C(=O)N1CCOCCOCCN1C(=O)CC([*:2])C1=O

With `CC(=O)N[C@@H](CSC1CC(=O)N(CCOCCOCCN2C(=O)CC(SC[C@H](NC(C)=O)C(=O)NCC(=O)N[C@@H](CO)C(=O)N[C@@H](CO)C(=O)NCC(=O)N[C@@H](CC(=O)O)C(=O)N3CCC[C@H]3C(=O)N[C@@H](C)C(=O)N[C@@H](Cc3c[nH]c4ccccc34)C(=O)N[C@@H](CC(=O)O)C(=O)N[C@@H](CCC(=O)O)C(=O)N[C@H](C(=O)N[C@@H](CC(N)=O)C(=O)N[C@@H](CC(C)C)C(=O)O)[C@@H](C)O)C2=O)C1=O)C(=O)NCC(=O)N[C@@H](CO)C(=O)N[C@@H](CO)C(=O)NCC(=O)N[C@@H](CC(=O)O)C(=O)N1CCC[C@H]1C(=O)N[C@@H](C)C(=O)N[C@@H](Cc1c[nH]c2ccccc12)C(=O)N[C@@H](CC(=O)O)C(=O)N[C@@H](CCC(=O)O)C(=O)N[C@H](C(=O)N[C@@H](CC(N)=O)C(=O)N[C@@H](CC(C)C)C(=O)O)[C@@H](C)O` (some centres unmarked) [p2] (I: Ac-CGSSGDPAWDETNL-OH / II: Ac-CGSSGDPAWDETNL-OH; linker I:1-II:1 via X2), the Kd on Shank1 PDZ [1] is 16.6 µM and 18 µM; at Shank3 PDZ, 5.9 ± 0.4 µM; at Shank1 PDZ [2], roughly 5.3 µM. Besides, the “complexes with higher stoichiometry such as 2:1 or 3:1” value at Shank1 PDZ [2] is listed as “not observed”. Besides, the kon at Shank1 PDZ [3] was found to be 65200 M⁻¹ s⁻¹. Further, the koff at Shank1 PDZ [3] stood at 1.12 s⁻¹.
Turning to GSGSGDPAWDETNL-OH [p1], the Kd at Shank1 PDZ [1] (MicroCal VP-ITC, 25°C, 50 mM sodium phosphate, 200 mM NaCl, pH 7.4, single-binding-site model, [p1] = 4 mM/[Shank1 PDZ] = 400 μM, [p2] = 326 μM/43 μM, [p3] = 354 μM/35 μM (Fig 3A), read-out: dissociation constant Kd (ITC)) is 41 ± 1 µM; on Shank3 PDZ (MicroCal VP-ITC, 25°C, 50 mM sodium phosphate, 200 mM NaCl, pH 7.4, single-binding-site model, [p1] = 406 μM/[Shank3 PDZ] = 40 μM, [p2] = 400 μM/30 μM, [p3] = 315 μM/34 μM, read-out: Kd (ITC)), 24 ± 2 µM; on Shank1 PDZ [2] (rough estimation from peak intensities, 1:1 mixture, 150 mM ammonium acetate, 65 μM each, gas-phase measurement, read-out: dissociation constant estimated from native MS peak intensity), roughly 13 µM; at Shank1 PDZ [3] (Biacore 3000, 25°C, HBS-EP pH 7.4, Shank1 PDZ coupled on CM5 chip, steady state affinity model, n = 1, read-out: dissociation constant (SPR, steady state affinity model)), 45 ± 6 µM.
On Shank1 PDZ [1], `CC(=O)N[C@@H](CSC1CC(=O)N(CCOCCOCCOCCN2C(=O)CC(SC[C@H](NC(C)=O)C(=O)NCC(=O)N[C@@H](CO)C(=O)N[C@@H](CO)C(=O)NCC(=O)N[C@@H](CC(=O)O)C(=O)N3CCC[C@H]3C(=O)N[C@@H](C)C(=O)N[C@@H](Cc3c[nH]c4ccccc34)C(=O)N[C@@H](CC(=O)O)C(=O)N[C@@H](CCC(=O)O)C(=O)N[C@H](C(=O)N[C@@H](CC(N)=O)C(=O)N[C@@H](CC(C)C)C(=O)O)[C@@H](C)O)C2=O)C1=O)C(=O)NCC(=O)N[C@@H](CO)C(=O)N[C@@H](CO)C(=O)NCC(=O)N[C@@H](CC(=O)O)C(=O)N1CCC[C@H]1C(=O)N[C@@H](C)C(=O)N[C@@H](Cc1c[nH]c2ccccc12)C(=O)N[C@@H](CC(=O)O)C(=O)N[C@@H](CCC(=O)O)C(=O)N[C@H](C(=O)N[C@@H](CC(N)=O)C(=O)N[C@@H](CC(C)C)C(=O)O)[C@@H](C)O` (some centres unmarked) [dimeric peptide BM(PEG)3] (I: Ac-CGSSGDPAWDETNL-OH / II: Ac-CGSSGDPAWDETNL-OH; linker I:1-II:1 via X3) came in with a Kd of 13.7 ± 0.7 µM.
With “I: Ac-CGSSGDPAWDETNL-OH / II: Ac-CGSSGDPAWDETNL-OH / III: Ac-CGSSGDPAWDETNL-OH (linker I:1-II:1-III:1 via X1) [p3]”, the Kd on Shank1 PDZ [1] is 8.1 µM and 6.5 µM. Also, the Kd on Shank3 PDZ stood at 1.9 ± 0.1 µM. For the same molecule, on Shank1 PDZ [2], the Kd was roughly 4.5 µM and the “complexes with higher stoichiometry such as 2:1 or 3:1” value is listed as “not observed”. The difference in kon entry at Shank1 PDZ [3] (SPR, 1:1 Langmuir binding model, ligand p3 compared with ligand p2) is on record as “about 1.2 fold”. Moreover, on Shank1 PDZ [3], the kon turned out to be 78900 M⁻¹ s⁻¹ and the koff turned out to be 0.353 s⁻¹.

B1: Shank1 PDZ 653-765 (protein)
chain: T1 sequence (Q9WV48 653-765)
On to B1, for which the Kd was 41 µM in [4]; 16.6 µM in assay [5]; 13.7 µM in the assay with dimeric peptide BM(PEG)3; 8.1 µM in [6]; roughly 13 µM in assay [7]; roughly 5.3 µM in assay [8]. For the same molecule, the Kd in [9] was roughly 4.5 µM; in assay [10], 17.1 µM; in assay [11], 4.48 µM; in [12], 45 µM; in assay [13] it was 19 µM; in assay [14], 6 µM. Moreover, the Kd was determined as 18 µM in assay [15] and 6.5 µM in assay [16].

B2: Shank3 PDZ 533-665 (protein)
chain: T2 sequence (Q4ACU6 533-665)
Regarding B2, the Kd was determined as 24 µM in assay [4], 5.9 µM in assay [5] and 1.9 µM in assay [6].
